Values quoted from earlier work as cited in US6461650B1, “Preparation for supplementing a beverage and method for enriching a beverage in calcium and magnesium” (Institut National de la Recherche Agronomique, priority 1998, dated 2002).

Tested on: rats
Settings: incorporated in the diet

In the case of inulin, the “digestive assimilation of calcium and magnesium” value is listed as “increase the digestive assimilation of calcium and magnesium”.
